Results: patent publication US20240376113A1 (Volastra Therapeutics, Inc., priority 2020, published 2024)
Read-outs that look alike come from different tables or passages of the source.

Target: ENPP-1 ECD (Homo sapiens (Human), UniProt P22413)
Test: Inhibition of ENPP1 hydrolysis of 2′,3′-cGAMP (Assay 1)
Conditions: AMP-Glo luminescence, KI from IC50 via Cheng/Prusoff
[1] = Assay 1 KI values (class), 2,3-cGAMP 24 μM
[2] = read-out: Assay 1 KI, 2,3-cGAMP 24 μM
[3] = read-out: Assay 1 KI values (class), 2,3-cGAMP 24 μM

Chain of ENPP-1 ECD (P22413 98-925): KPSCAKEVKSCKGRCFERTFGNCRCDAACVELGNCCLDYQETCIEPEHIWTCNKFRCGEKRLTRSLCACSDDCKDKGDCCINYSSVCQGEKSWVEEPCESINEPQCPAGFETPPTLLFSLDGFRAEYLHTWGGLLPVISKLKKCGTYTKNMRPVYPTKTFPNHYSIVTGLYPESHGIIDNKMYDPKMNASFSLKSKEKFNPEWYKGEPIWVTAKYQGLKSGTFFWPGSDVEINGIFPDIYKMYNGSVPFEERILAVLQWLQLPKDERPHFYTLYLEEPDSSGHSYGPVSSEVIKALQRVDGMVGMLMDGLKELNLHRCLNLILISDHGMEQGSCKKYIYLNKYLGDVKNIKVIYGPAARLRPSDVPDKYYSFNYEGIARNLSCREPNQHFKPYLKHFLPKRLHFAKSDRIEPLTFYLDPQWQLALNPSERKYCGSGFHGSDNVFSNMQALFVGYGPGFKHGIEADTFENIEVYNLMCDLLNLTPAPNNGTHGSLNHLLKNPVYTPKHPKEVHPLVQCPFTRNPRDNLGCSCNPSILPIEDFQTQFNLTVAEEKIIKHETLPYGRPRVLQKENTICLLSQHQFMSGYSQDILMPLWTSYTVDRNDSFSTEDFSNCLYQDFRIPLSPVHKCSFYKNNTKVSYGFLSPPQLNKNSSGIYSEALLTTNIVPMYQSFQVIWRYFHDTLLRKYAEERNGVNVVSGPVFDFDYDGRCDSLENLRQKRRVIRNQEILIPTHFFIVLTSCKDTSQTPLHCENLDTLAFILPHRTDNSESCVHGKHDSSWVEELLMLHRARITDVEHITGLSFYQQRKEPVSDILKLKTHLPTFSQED
Description: Test compounds were plated in a 3× dilution scheme in a 384 well plate.

With `CN(C)c1c(Cc2ccc(S(C)(=N)=O)cc2)c(C(F)(F)F)nc2ncnn12` (stereo not shown) [Compound 51] the Ki [1] was 3 to 300 nM and the Ki [2] was 5.56 nM.
`CS(=N)(=O)Cc1ccc(-c2cnc3ncnn3c2)cc1` (stereo not shown) [Compound 66, imino(methyl)[(4-{[1,2,4]triazolo[1,5-a]pyrimidin-6-yl}phenyl)methyl]-λ^6-sulfanone] was tested, and the Ki [1] was greater than 300 nM and the Ki [2] was greater than 1500 nM.
Work on `Cc1nc2ncnn2c(N2CC3CC2C3)c1Cc1ccc(S(C)(=N)=O)cc1` (stereo not shown) [Compound 45, {4-[(7-{2-azabicyclo[2.1.1]heptan-2-yl}-5-methyl-[1,2,4]triazolo[1,5-a]pyrimidin-6-yl)methyl]phenyl}(imino)methyl-λ^6-sulfanone] yielded a Ki [1] of 3 to 300 nM and a Ki [2] of 9.83 nM.
With `Cc1nc2ncnn2c(N2CC3CC(C3)C2)c1Cc1ccc(S(C)(=N)=O)cc1` (stereo not shown) [Compound 46, {4-[(7-{3-azabicyclo[3.1.1]heptan-3-yl}-5-methyl-[1,2,4]triazolo[1,5-a]pyrimidin-6-yl)methyl]phenyl}(imino)methyl-λ^6-sulfanone] the Ki [1] was 3 to 300 nM.
Work on `Cc1nc2ncnn2c(N(C)C)c1-c1ccc2c(c1)CCN(S(N)(=O)=O)C2` [Compound 84, 6-[7-(dimethylamino)-5-methyl-[1,2,4]triazolo[1,5-a]pyrimidin-6-yl]-1,2,3,4-tetrahydroisoquinoline-2-sulfonamide] yielded a Ki [1] greater than 300 nM and a Ki [2] of 672 nM.
For `Cc1nc2ncnn2c(N(C)C)c1Cc1cccc(S(C)(=N)=O)c1` (stereo not shown) [Compound 4, (3-((7-(dimethylamino)-5-methyl-[1,2,4]triazolo[1,5-a]pyrimidin-6-yl)methyl)phenyl)(imino)(methyl)-λ^6-sulfanone], the Ki [1] was greater than 300 nM and the Ki [2] was 537 nM.
For `Cc1nc2ncnn2c(N2CC(C)(C)C2)c1Cc1ccc(S(C)(=N)=O)cc1` (stereo not shown) [Compound 42, (4-{[7-(3,3-dimethylazetidin-1-yl)-5-methyl-[1,2,4]triazolo[1,5-a]pyrimidin-6-yl]methyl}phenyl)(imino)methyl-λ^6-sulfanone], the Ki [1] was 3 to 300 nM.
Compound `Cc1nc2ncnn2c(N2C3CCCC2CC3)c1Cc1ccc(S(C)(=N)=O)cc1` (stereo not shown) [Compound 47] has a Ki [1] of 3 to 300 nM and a Ki [2] of 50.9 nM.
In the case of `Cc1nc2ncnn2c(N(C)C)c1-c1ccc(CCS(C)(=N)=O)cc1` (stereo not shown) [Compound 68, (2-{4-[7-(dimethylamino)-5-methyl-[1,2,4]triazolo[1,5-a]pyrimidin-6-yl]phenyl}ethyl)(imino)methyl-λ^6-sulfanone], the Ki [1] is reported as 3 to 300 nM.
With `Cc1nc2ncnn2c(N(C)C)c1-c1ccc2c(c1)CN(S(N)(=O)=O)CC2` [Compound 69, 7-[7-(dimethylamino)-5-methyl-[1,2,4]triazolo[1,5-a]pyrimidin-6-yl]-1,2,3,4-tetrahydroisoquinoline-2-sulfonamide] the Ki [1] was 3 to 300 nM and the Ki [2] was 122 nM.
In the case of `CCN(CC)c1c(Cc2ccc(S(C)(=N)=O)cc2)c(C)nc2ncnn12` (stereo not shown) [Compound 38], the Ki [1] is reported as 3 to 300 nM and the Ki [2] is reported as 37.9 nM.
Work on `Cc1nc2ncnn2c(N(C)C)c1Cc1ccc(S(=N)(=O)C2CC2)cc1` (stereo not shown) [Compound 63, [cyclopropyl(4-{[7-(dimethylamino)-5-methyl-[1,2,4]triazolo[1,5-a]pyrimidin-6-yl]methyl}phenyl)imino-λ^6-sulfanyl]one] yielded a Ki [1] of less than 3 nM and a Ki [2] of 0.0363 nM.
Work on `Cc1cc2ncnn2c(N(C)C)c1Cc1ccc([S@@](C)(=N)=O)cc1` (single isomer, unassigned) [Compound 28b] yielded a Ki [3] of 3 to 300 nM and a Ki [2] of 10 nM.
`Cc1nc2ncnn2c(N(C)C)c1Cc1ccc(S(=N)(=O)C2COC2)cc1` (stereo not shown) [Compound 62, [(4-{[7-(dimethylamino)-5-methyl-[1,2,4]triazolo[1,5-a]pyrimidin-6-yl]methyl}phenyl)(oxetan-3-yl)imino-λ^6-sulfanyl]one] showed a Ki [1] of less than 3 nM and a Ki [2] of 0.19 nM.
With `Cc1nc2ncnn2c(N(C)C)c1CC1CCN(S(N)(=O)=O)CC1` [Compound 15, 4-{[7-(dimethylamino)-5-methyl-[1,2,4]triazolo[1,5-a]pyrimidin-6-yl]methyl}piperidine-1-sulfonamide] the Ki [1] was 3 to 300 nM and the Ki [2] was 495 nM.
In the case of `Cc1nc2ncnn2c(N(C)C)c1Cc1ccc([S@](C)(=N)=O)cc1` (single isomer, unassigned) [Compound 49b], the Ki [3] is reported as less than 3 nM and the Ki [2] is reported as 0.356 nM.
“3-[(4-{[7-(dimethylamino)-5-methyl-[1,2,4]triazolo[1,5-a]pyrimidin-6-yl]methyl}phenyl)(imino)oxo-λ^6-sulfanyl]propaneitrile [Compound 61]” gave a Ki [3] of less than 3 nM and a Ki [2] of 0.375 nM.
For `CN(C)c1c(Cc2ccc([S@](C)(=N)=O)cc2)c(Cl)nc2ncnn12` [Compound 74b], the Ki [3] was 3 to 300 nM and the Ki [2] was 9.97 nM.
`Cc1nc2ncnn2c(N(C)C)c1Cc1cccc(NS(N)(=O)=O)c1` [Compound 3, N-(3-{[7-(dimethylamino)-5-methyl-[1,2,4]triazolo[1,5-a]pyrimidin-6-yl]methyl}phenyl)aminosulfonamide] was tested, and the Ki [1] was 3 to 300 nM and the Ki (Assay 1 KI, 2,3-cGAMP 24 μM) was 222 nM.
Compound `Cc1nc2ncnn2c(C)c1Cc1ccc(S(C)(=N)=O)cc1` (stereo not shown) [Compound 26, [4-({5,7-dimethyl-[1,2,4]triazolo[1,5-a]pyrimidin-6-yl}methyl)phenyl](imino)methyl-λ6-sulfanone] has a Ki [1] of 3 to 300 nM and a Ki [2] of 13.6 nM.
With `Cc1nc2ncnn2c(N(C)C)c1Cc1ccc([S@](C)(=N)=O)cc1` (single isomer, unassigned) [Compound 1a] the Ki [3] was 3 to 300 nM and the Ki [2] was 13.4 nM.
In the case of `Cc1nc2ncnn2c(C2CC2)c1Cc1ccc(S(C)(=N)=O)cc1` (stereo not shown) [Compound 71, [4-({7-cyclopropyl-5-methyl-[1,2,4]triazolo[1,5-a]pyrimidin-6-yl}methyl)phenyl](imino)methyl-λ6-sulfanone], the Ki [1] is reported as 3 to 300 nM.
In the case of `Cc1nc2nccn2c(N2CCCCC2)c1Cc1ccc(S(C)(=N)=O)cc1` (stereo not shown) [Compound 83, Imino(methyl)(4-{[7-methyl-5-(piperidin-1-yl)imidazo[1,2-a]pyrimidin-6-yl]methyl}phenyl)-λ^6-sulfanone], the Ki [1] is reported as less than 3 nM and the Ki [2] is reported as 0.0978 nM.
`Cc1nc2ncnn2c(N2CCC(F)(F)CC2)c1Cc1ccc(S(C)(=N)=O)cc1` (stereo not shown) [Compound 43, (4-{[7-(4,4-difluoropiperidin-1-yl)-5-methyl-[1,2,4]triazolo[1,5-a]pyrimidin-6-yl]methyl}phenyl)(imino)methyl-λ^6-sulfanone] gave a Ki [1] of 3 to 300 nM.
`Cc1nc2ncnn2c(-n2cccn2)c1Cc1ccc(S(C)(=N)=O)cc1` (stereo not shown) [Compound 18, imino(methyl)(4-((5-methyl-7-(1H-pyrazol-1-yl)-[1,2,4]triazolo[1,5-a]pyrimidin-6-yl)methyl)phenyl)-λ^6-sulfanone] showed a Ki [1] of 3 to 300 nM and a Ki [2] of 6.99 nM.
With `Cc1nc2ncnn2c(N(C)C)c1Cc1cccc(S(N)(=O)=O)c1` [Compound 65, 3-{[7-(dimethylamino)-5-methyl-[1,2,4]triazolo[1,5-a]pyrimidin-6-yl]methyl}benzene-1-sulfonamide] the Ki [1] was 3 to 300 nM and the Ki [2] was 181 nM.
For `Cc1nc2ncnn2c(N2CC3CC3C2)c1Cc1ccc(S(C)(=N)=O)cc1` (stereo not shown) [Compound 48, {4-[(7-{3-azabicyclo[3.1.0]heptan-3-yl}-5-methyl-[1,2,4]triazolo[1,5-a]pyrimidin-6-yl)methyl]phenyl}(imino)methyl-λ^6-sulfanone], the Ki [1] was less than 3 nM and the Ki [2] was 2.65 nM.
In the case of `Cc1c(Cc2ccc([S@](C)(=N)=O)cc2)c(N(C)C)n2ccnc2c1C#N` [Compound 80b], the Ki [3] is reported as 3 to 300 nM and the Ki [2] is reported as 43 nM.
Work on `Cc1nc2ncnn2c(N2C3CCC2CC3)c1Cc1ccc(S(C)(=N)=O)cc1` (stereo not shown) [Compound 44, {4-[(7-{7-azabicyclo[2.2.1]heptan-7-yl}-5-methyl-[1,2,4]triazolo[1,5-a]pyrimidin-6-yl)methyl]phenyl}(imino)methyl-λ^6-sulfanone] yielded a Ki [1] of 3 to 300 nM.
In the case of `Cc1nc2ncnn2c(N(C)C)c1Cc1ccc([S@](=N)(=O)CCC(=O)O)cc1` [Compound 72b], the Ki [2] is reported as 0.982 nM.
Work on `Cc1nc2ncnn2c(N(C)C2CC2)c1Cc1ccc(S(C)(=N)=O)cc1` (stereo not shown) [Compound 39, [4-({7-[cyclopropyl(methyl)amino]-5-methyl-[1,2,4]triazolo[1,5-a]pyrimidin-6-yl}methyl)phenyl](imino)methyl-λ^6-sulfanone] yielded a Ki [1] of 3 to 300 nM.
`Cc1nc2ncnn2c(N(C)C2CCC2)c1Cc1ccc(S(C)(=N)=O)cc1` (stereo not shown) [Compound 40] showed a Ki [1] of 3 to 300 nM and a Ki [2] of 27 nM.
`COc1nc2ncnn2c(N(C)C)c1Cc1ccc([S@](C)(=N)=O)cc1` [Compound 88b] showed a Ki [2] greater than 15 nM.
In the case of `Cc1nc2ncnn2c(N2CC(F)(F)C2)c1Cc1ccc(S(C)(=N)=O)cc1` (stereo not shown) [Compound 41], the Ki [1] is reported as 3 to 300 nM and the Ki [2] is reported as 10.8 nM.
`Cc1nc2ncnn2c(N2CCCCC2)c1Cc1ccc([S@@](C)(=N)=O)cc1` [Compound 16b] showed a Ki [3] of 3 to 300 nM and a Ki [2] of 3.17 nM.
`Cc1nc2nccn2c(N(C)C)c1Cc1ccc([S@@](C)(=N)=O)cc1` [Compound 29b] was tested, and the Ki [3] was 3 to 300 nM and the Ki [2] was 42.2 nM.
In the case of `CS(=N)(=O)c1ccc(Cc2c(C(F)(F)F)nc3ncnn3c2N2CCCCC2)cc1` (stereo not shown) [Compound 52], the Ki [1] is reported as 3 to 300 nM and the Ki [2] is reported as 4.85 nM.
`Cc1nc2ncnn2cc1Cc1ccc(S(C)(=N)=O)cc1` (stereo not shown) [Compound 70, imino(methyl)[4-({5-methyl-[1,2,4]triazolo[1,5-a]pyrimidin-6-yl}methyl)phenyl]-λ6-sulfanone] gave a Ki [1] of 3 to 300 nM and a Ki [2] of 179 nM.
With `Cc1nc2ncnn2c(N2CCCC2)c1Cc1ccc([S@@](C)(=N)=O)cc1` (single isomer, unassigned) [Compound 8b] the Ki [3] was 3 to 300 nM and the Ki [2] was 13.4 nM.
`Cc1c(Cc2ccc([S@](C)(=N)=O)cc2)c(N(C)C)n2ncnc2c1C#N` (single isomer, unassigned) [Compound 85b] was tested, and the Ki [2] was 11.1 nM.
